Test results: US20260125375A1 (Pfizer Inc., priority 2022, published 2026)
Like-named read-outs stand apart in the source and are kept apart here.

Experiments:
CBL-B (residues 36-427) = molecular target: T1, CBL-B (residues 36-427) (Homo sapiens, UniProt Q13191); experiment: Ligand Displacement Assay (LDA), HTRF competitive binding against BODIPY-labeled fluorescent tracer, CBL-B; conditions: geometric mean of the number of tests, read-out: CBL-B Ki (nM) GMean
T1 construct: Purified CBL-B (residues 36-427) and C-CBL (residues 46-435) proteins from baculovirus-infected insect cells; made in house; host or cells: baculovirus-infected insect cells
Summary of the method: (§1)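 Terbium-streptavidin donor on BirA-biotinylated, AviTagged protein from baculovirus-infected insect cells; BODIPY tracer as acceptor. Compound titrations were three-fold and duplicated, […] with 2% DMSO final.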

C-CBL (residues 46-435) = molecular target: T2, C-CBL (residues 46-435) (Homo sapiens, UniProt P22681); experiment: Ligand Displacement Assay (LDA), HTRF competitive binding against BODIPY-labeled fluorescent tracer, C-CBL; conditions: geometric mean of the number of tests, read-out: C-CBL Ki (nM) GMean
T2 construct: Purified CBL-B (residues 36-427) and C-CBL (residues 46-435) proteins from baculovirus-infected insect cells; made in house; host or cells: baculovirus-infected insect cells
T2 sequence (P22681 46-435): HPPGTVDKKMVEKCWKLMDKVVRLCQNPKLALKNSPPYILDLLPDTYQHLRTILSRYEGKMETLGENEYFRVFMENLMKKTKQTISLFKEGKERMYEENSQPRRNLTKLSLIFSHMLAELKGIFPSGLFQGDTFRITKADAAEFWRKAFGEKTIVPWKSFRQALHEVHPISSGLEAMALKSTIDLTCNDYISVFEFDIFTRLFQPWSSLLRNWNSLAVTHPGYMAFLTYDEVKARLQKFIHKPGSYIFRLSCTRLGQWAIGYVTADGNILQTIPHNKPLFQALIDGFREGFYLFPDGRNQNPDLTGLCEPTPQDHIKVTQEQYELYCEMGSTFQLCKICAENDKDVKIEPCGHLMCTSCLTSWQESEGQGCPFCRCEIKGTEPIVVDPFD
Summary of the method: as §1

C-CBL = molecular target: T3, C-CBL (Homo sapiens, UniProt P22681); experiment: Jurkat HiBit-IL2 assay (CBL-B KO), reporter cell line expressing C-CBL only; type: cell-based; conditions: geometric mean, read-out: CBL-B KO EC50 (nM) GMean
T3 construct: endogenous in cells; host or cells: Jurkat HiBit-IL2 reporter cells, CBL-B knocked out by CRISPR
Summary of the method: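 CRISPR knockout Jurkat HiBit-IL2 reporter cells (20,000/well) were preincubated 1 h with compounds (0.1% DMSO), then stimulated 4 h at 37 °C with anti-CD3 (1 μg/ml) and anti-CD28 (2 μg/ml) final. IL-2 was read by HiBiT lytic luminescence, normalized as fold over antibody-only baseline; EC50 reported as geometric mean.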

[1] = CBL-B KO (C-CBL only), anti-CD3/anti-CD28 stimulation 4 hours, Table 16a
[2] = CBL-B KO (expressing C-CBL only), Table 16b (further repetition)

| Compound | Ki (CBL-B (residues 36-427)) | Ki (C-CBL (residues 46-435)) | EC50 (C-CBL; [1]) | EC50 (C-CBL; [2]) |
| --- | --- | --- | --- | --- |
| C[C@@H]1CCCN([C@@H](C)c2nc(C(F)(F)F)cc3c(-c4cccc(C5(Cc6nncn6C)COC5)c4)n[nH]c23)C1 (single isomer, unassigned) [Example D13] | 15 nM | 53.6 nM | 539 nM | – |
| C[C@H]1CN(Cc2nc(C(F)(F)F)cc3c(-c4cccc([C@H](c5nncn5C)C5CCC5)c4)n[nH]c23)CCO1 [Example C6, 3-{3-[(R)-cyclobutyl(4-methyl-4H-1,2,4-triazol-3-yl)methyl]phenyl}-7-{[(2S)-2-methylmorpholin-4-yl]methyl}-5-(trifluoromethyl)-1H-pyrazolo[3,4-c]pyridine] | 25.8 nM | 256 nM | 807 nM | – |
| Cn1cnnc1CC1(c2cccc(-c3n[nH]c4c(CN[C@H]5CCC(F)(F)C5)nc(C(F)(F)F)cc34)c2)COC1 [Example C38, (1S)-3,3-difluoro-N-{[3-(3-{3-[(4-methyl-4H-1,2,4-triazol-3-yl)methyl]oxetan-3-yl}phenyl)-5-(trifluoromethyl)-1H-pyrazolo[3,4-c]pyridin-7-yl]methyl}cyclopentan-1-amine] | 6.9 nM | 32.9 nM | 494 nM | – |
| C[C@@H](NC1CCCC1)c1nc(C(F)(F)F)cc2c(-c3cccc([C@H](c4nncn4C)C4CCC4)c3)n[nH]c12 (single isomer, unassigned) [Example C11] | 0.6 nM | 3.7 nM | 46 nM | 32 nM |
| C[C@H](c1nc(C(F)(F)F)cc2c(-c3cccc(C4(Cc5nncn5C)COC4)c3)n[nH]c12)N1CCC(F)(F)C1 (single isomer, unassigned) [Example D6] | 4.6 nM | 21 nM | 235 nM | – |
| CC(c1nc(C(F)(F)F)cc2c(-c3cccc(C4(Cc5nncn5C)COC4)c3)n[nH]c12)N1CCOCC1 (single isomer, unassigned) [Example C24, 3-(3-{3-[(4-methyl-4H-1,2,4-triazol-3-yl)methyl]oxetan-3-yl}phenyl)-7-[(1ξ)-1-(morpholin-4-yl)ethyl]-5-(trifluoromethyl)-1H-pyrazolo[3,4-c]pyridine] | 28.3 nM | 134 nM | 2970 nM | – |
| C[C@H](NC1CC[C@H]1O)c1nc(C(F)(F)F)cc2c(-c3cccc([C@H](c4nncn4C)C4CCC4)c3)n[nH]c12 (single isomer, unassigned) [Example D30] | 0.6 nM | 5.1 nM | 43 nM | 52 nM |
| CC(c1nc(C(F)(F)F)cc2c(-c3cccc(C4(Cc5nncn5C)COC4)c3)n[nH]c12)N1CCC[C@H](C)C1 (single isomer, unassigned) [Example C20] | 2.4 nM | 16.9 nM | 78 nM | 56 nM |
| C[C@@H](NC1CCCC1)c1nc(C(F)(F)F)cc2c(-c3cccc(C4(Cc5nncn5C)COC4)c3)n[nH]c12 (single isomer, unassigned) [Example C15] | 8.9 nM | 42.1 nM | 229 nM | – |
| C[C@H]1CN([C@@H](C)c2nc(C(F)(F)F)cc3c(-c4cccc(C5(Cc6nncn6C)COC5)c4)n[nH]c23)CCO1 (single isomer, unassigned) [Example D11] | 7.4 nM | 27.2 nM | 512 nM | – |
| C[C@@H](N[C@H]1CCOC1)c1nc(C(F)(F)F)cc2c(-c3cccc([C@H](c4nncn4C)C4CCC4)c3)n[nH]c12 (single isomer, unassigned) [Example C3] | 7.8 nM | 52.1 nM | 639 nM | – |
| CCNC(C)c1nc(C(F)(F)F)cc2c(-c3cccc([C@H](c4nncn4C)C4CCC4)c3)n[nH]c12 (single isomer, unassigned) [Example C89] | 8 nM | 105 nM | – | 471 nM |
| C[C@@H](N[C@H]1C[C@@H](O)C1)c1nc(C(F)(F)F)cc2c(-c3cccc([C@H](c4nncn4C)C4CCC4)c3)n[nH]c12 (single isomer, unassigned) [Example C37] | 5.3 nM | 50.6 nM | 1040 nM | – |
| C[C@@H](c1nc(C(F)(F)F)cc2c(-c3cccc(C4(Cc5nncn5C)COC4)c3)n[nH]c12)N1CC[C@@H](F)C1 (single isomer, unassigned) [Example D9] | 17.4 nM | 71.8 nM | 1770 nM | – |
| C[C@H]1CCCN(Cc2nc(C(F)(F)F)cc3c(-c4cccc([C@H](c5nncn5C)C5CCC5)c4)n[nH]c23)C1 [Example C7, 3-{3-[(R)-cyclobutyl(4-methyl-4H-1,2,4-triazol-3-yl)methyl]phenyl}-7-{[(3S)-3-methylpiperidin-1-yl]methyl}-5-(trifluoromethyl)-1H-pyrazolo[3,4-c]pyridine] | 3.7 nM | 53.1 nM | 519 nM | – |
| C[C@@H](N[C@H]1C[C@H](O)C1)c1nc(C(F)(F)F)cc2c(-c3cccc([C@H](c4nncn4C)C4CCC4)c3)n[nH]c12 (single isomer, unassigned) [Example C92] | 4.4 nM | 50 nM | – | 525 nM |
| Cn1cnnc1CC1(c2cccc(-c3n[nH]c4cnc(C(F)(F)F)cc34)c2)COC1 [Example B1, 3-(3-(3-((4-methyl-4H-1,2,4-triazol-3-yl)methyl)oxetan-3-yl)phenyl)-5-(trifluoromethyl)-1H-pyrazolo[3,4-c]pyridine] | 62.7 nM | 283 nM | > 9980 nM | – |
| C[C@@H](N[C@H]1CC[C@@H]1O)c1nc(C(F)(F)F)cc2c(-c3cccc([C@H](c4nncn4C)C4CCC4)c3)n[nH]c12 (single isomer, unassigned) [Example D22] | 0.8 nM | 5.8 nM | 79 nM | 91 nM |
| C[C@H](N[C@H]1C[C@@H](F)C1)c1nc(C(F)(F)F)cc2c(-c3cccc([C@H](c4nncn4C)C4CCC4)c3)n[nH]c12 (single isomer, unassigned) [Example C95] | 4.7 nM | 28 nM | – | 230 nM |
| CC(c1nc(C(F)(F)F)cc2c(-c3cccc(C4(Cc5nncn5C)COC4)c3)n[nH]c12)N1C[C@@H](F)[C@H](F)C1 (single isomer, unassigned) [Example C25] | 6.5 nM | 33.1 nM | 252 nM | – |
| C[C@H](NC1CCC1)c1nc(C(F)(F)F)cc2c(-c3cccc(C4(Cc5nncn5C)COC4)c3)n[nH]c12 [Example F1, N-{(1S)-1-[3-(3-{3-[(4-methyl-4H-1,2,4-triazol-3-yl)methyl]oxetan-3-yl}phenyl)-5-(trifluoromethyl)-1H-pyrazolo[3,4-c]pyridin-7-yl]ethyl}cyclobutanamine] | 1.3 nM | 7.3 nM | 60 nM | 56 nM |
| C[C@@H](N[C@H]1CCC(F)(F)C1)c1nc(C(F)(F)F)cc2c(-c3cccc([C@H](c4nncn4C)C4CCC4)c3)n[nH]c12 [Example C9] | 5 nM | 85.2 nM | 606 nM | 176 nM |
| Cn1cnnc1[C@@H](c1cccc(-c2n[nH]c3c(CNC4CCCC4)nc(C(F)(F)F)cc23)c1)C1CCC1 [Example D4] | 5.1 nM | 54.8 nM | 479 nM | – |
| C[C@@H](N[C@@H]1CCC[C@@H]1O)c1nc(C(F)(F)F)cc2c(-c3cccc([C@H](c4nncn4C)C4CCC4)c3)n[nH]c12 (single isomer, unassigned) [Example D16] | 2.5 nM | 24.5 nM | 188 nM | – |
| C[C@@H](N[C@@H]1CCOC1)c1nc(C(F)(F)F)cc2c(-c3cccc([C@H](c4nncn4C)C4CCC4)c3)n[nH]c12 (single isomer, unassigned) [Example D3] | 6 nM | 69.7 nM | 472 nM | 333 nM |
| C[C@@H](N[C@H]1C[C@@H](F)C1)c1nc(C(F)(F)F)cc2c(-c3cccc([C@H](c4nncn4C)C4CCC4)c3)n[nH]c12 (single isomer, unassigned) [Example C96] | 9.2 nM | 53.5 nM | – | 574 nM |
| Cn1cnnc1CC1(c2cccc(-c3n[nH]c4ncc(C(F)(F)F)cc34)c2)COC1 [Example B3, 3-(3-{3-[(4-methyl-4H-1,2,4-triazol-3-yl)methyl]oxetan-3-yl}phenyl)-5-(trifluoromethyl)-1H-pyrazolo[3,4-b]pyridine] | 75.3 nM | 363 nM | 4060 nM | – |
